pIC50: −log10 of the molar value. Where “and” joins values, the source holds several entries; their conditions need not be identical. Equal entries are not always repeated. Entries after “also recorded” stand apart in the source; their conditions may differ. Where two headings read alike, the source gives them in different places.
Key:
[1] = tested on: Nav1.6; experiment: Patch-clamp recording of VGSC current in HEK (Nav1.6) cells; format: cell-based, human
[2] = tested on: SH-SY5Y cells; experiment: Cell morphology observation, SH-SY5Y cells; format: cell-based, human; conditions: 120 μM; undifferentiated SH-SY5Y cells
[3] = tested on: VGSC; experiment: Patch-clamp recording of VGSC current, cell type not specified or several cell types (summary statements); format: cell-based, human; conditions: for pIC50: read-out: IC50 for inhibition of VGSC; for Enhancement of VGSC current at high(er) concentration: high concentration (desensitization)
[4] = tested on: Nav1.5; experiment: Patch-clamp (voltage clamp) recording of VGSC current in HEK cells stably expressing Nav1.5; conditions: for pIC50: read-out: IC50 (VGSC inhibition)
[5] = tested on: endogenous T1R GPCR of HEK cells; experiment: Intracellular calcium (Cal-520) in HEK cells stably expressing Nav1.1 with endogenous T1R GPCR; format: cell-based, human; conditions: 10 nM then 20 nM for Aβ1-40 and Aβ1-42
Description: Specifically, experiments were conducted as follows using HEK cells stably expressing Nav1.1 (FIG. 45). The calcium-sensitive reagent (Cal-520, AAT Bioquest) was incubated at 37° C. for 60 minutes, followed by incubation at room temperature for 30 minutes, and then changes in intracellular calcium were measured using a fluorescence microscope. […] Initially, 10 nM, followed by 20 nM of Aβ1-40 was applied after 5 minutes (arrow). […] A total of 6 cell groups from two independent experiments were measured, averaged by the maximum fluorescence response value, and the mean and standard error (stderr) were calculated and plotted. […] 10 nM, followed by 20 nM of Aβ1-42 was applied after 5 minutes (arrow). […] A total of 12 cell groups from two independent experiments were measured, averaged by the minimum fluorescence response value, and the mean and standard error (stderr) were calculated and plotted. Similar to the experimental results using the patch-clamp method when Aβ peptide was applied to Nav1.5, it was confirmed from intracellular calcium measurements that the effects of Aβ1-40 and Aβ1-42 were different.

[6] = tested on: Nav1.5 in T1R3-silenced HEK cells; experiment: VGSC current in HEK Nav1.5 cells with silenced T1R3; format: cell-based, human
Description: The miRNAs Oligo (Thermofisher) used for silencing were annealed to form double-stranded DNA, which was then linked to the miR RNAi Expression Vector using T4 DNA ligase to create the knockdown vector. Specifically, the procedure followed the miR RNAi Expression Vector Kit manual (BLOCK-i™ Pol II miR RNAi Expression Vector Kit with EmGFP (Catalog number: K493600)).
Since Aβ25-35 peptide produced similar effects (enhancing VGSC activity, lowering the excitability threshold) as glutamine, it was considered that Aβ25-35 peptide might also act on T1R2/T1R3 receptors like glutamine. Therefore, in this implementation example, we used HEK-Nav1.5 cells with silenced T1R3 and compared the effect of Aβ25-35 peptide on VGSC with that in control HEK-Nav1.5 cells.
To strengthen these findings, we conducted similar experiments using HEK Nav1.5 cells in which T1R3 expression was silenced (FIG. 22). We measured VGSC currents in T1R3-silenced HEK Nav1.5 cells, applying stimuli every 8 seconds.

[7] = tested on: HEK Nav1.5 cells; experiment: GFP-Tubulin / GFP-Actin cytoskeleton observation in HEK Nav1.5 cells; format: cell-based, human
Description: To observe the impact of cinacalcet and Aβ1-42 peptide on microfilament (actin) fiber structures, we labeled cells with GFP-Actin (FIG. 34). […] This experimental approach, using GFP-Tubulin, GFP-Actin, or other fluorescent proteins to label microtubules and microfilaments, can be used to screen compounds that regulate the activity of ion channels and neuronal function-controlling proteins. Additionally, simultaneous labeling of tubulin and actin can be achieved using fluorescent antibodies or phalloidin after cell fixation.

[8] = tested on: Nav1.1; experiment: Patch-clamp recording of VGSC current in HEK (Nav1.1) cells; format: cell-based, human
Description: (§1) The cells used in the previous (18-1) experiment were cardiac-type VGSC cells. In this experiment, HEK (Nav1.1) and HEK (Nav1.6) cells, which are considered neuronal VGSC cells, were created. The effects of four peptides—Aβ25-35, Aβ1-38, Aβ1-40, and Aβ1-42—were examined using the same experimental protocol as in (18-1).

[9] = tested on: Nav1.6; experiment: Patch-clamp recording of VGSC current in HEK (Nav1.6) cells; format: cell-based, human; remark: listed apart in the source
Description: as §1, with “(18-1). […]” for “(18-1).”

[10] = tested on: SH-SY5Y cells; experiment: Action potentials of differentiated SH-SY5Y cells (current clamp, NanoCharge method); format: cell-based, human; conditions: listed as Aβ25-35 peptide
Description: Next, using the current-clamp mode, we applied current stimulation and recorded action potentials from differentiated SH-SY5Y cells (FIG. 5, from the lower to the upper part of the figure, rectangular wave current stimulation was applied. The current strengths were 6, 8, 10, and 12 pA from the bottom). Before the application of Aβ25-35 peptide, action potentials were not induced at stimulation currents of 6 pA and 8 pA, but action potentials were recorded at stronger stimulation currents (10 pA and 12 pA).
By using magnetic conductive nanoparticles as intracellular electrodes for measuring the neuronal action potentials of differentiated SH-SY5Y cells, and combining this with a capacitive potential detection device to measure changes in intracellular potentials, the spontaneous action potentials of these cells were measured. Specifically, 6.25 nM of the T1R3 agonist Aβ25-35 peptide was added to 400 μl of SH-SY5Y cell culture medium, and the spontaneous action potentials before and after the addition of Aβ25-35 peptide were measured to observe the changes.
This membrane potential recording method focuses on the magnetic conductive nanoparticles penetrating the cell membrane, the cover glass on which the cells are seeded, and the electrode placed below the cover glass forming a capacitor. The charge (Q) charged to this capacitor is recorded as the membrane potential in terms of charge rather than voltage changes. Since the charge (Q) is obtained from Q=CV, where C is the capacitance and V is the potential, the charge changes measured here are influenced by the capacitor (C) (FIG. 43).

[11] = tested on: VGSC of SH-SY5Y cells (Nav1.7, Nav1.2, Nav1.3); experiment: Patch-clamp recording of VGSC current in differentiated SH-SY5Y cells; format: cell-based, human; conditions: 1-6 μM (2 μM in FIG. 4); listed as Aβ25-35 peptide
Description: Furthermore, the inventors focused on the relationship between taste receptors, particularly the sweet or umami receptors containing the T1R3 subunit, which are widely expressed in the brain and nervous system, including the hippocampus and cortex. They used human neuroblastoma cells (SH-SY5Y) that functionally express Nav1.2, Nav1.3, and Nav1.7 (as reported in non-patent literature 8), as well as HEK cells stably expressing Nav1.5 (with endogenous expression of T1R1, T1R2, and T1R3). They observed the effects of taste stimuli on sodium channel activation. By reducing the expression of T1R1 and T1R3 genes using silencing vectors, they confirmed that the effects on sodium channel currents induced by taste stimuli act through taste receptor GPCRs.
The SH-SY5Y cell culture medium was prepared by mixing DMEM (Sigma-Aldrich) and F-12 (Sigma-Aldrich) in equal proportions. To induce neuronal-like differentiation, the medium contained 1% FBS (BioWest), 5% 40 mM L-Glutamine (Fuji Film), and 1% MEM non-essential amino acids (Wako Pure Chemical Industries). During differentiation, SH-SY5Y cells were cultured for at least 5 days with the addition of 10 μM/ml retinoic acid (Fuji Film). In this document, “SH-SY5Y cells” refer to the SH-SY5Y cell line differentiated into neuronal-like cells.

[12] = tested on: Kv1.2; experiment: Patch-clamp recording of Kv1.2 potassium current in HEK cells expressing Kv1.2; format: cell-based, human
Description: The effects of Aβ peptides or umami substances on sustained potassium currents (VGKC) in cardiac myocytes can be studied using HEK cells expressing VGKC (such as Kv1.2, Kv3.2, Kv3.3) as well as SH-SY5Y cells expressing endogenous T1R GPCRs. For instance, as shown in the implementation example in (FIG. 36B), Aβ peptides were applied to VGKC-expressing human cultured cells, and VGKC currents were recorded using ramp-like or rectangular voltage waveforms via the patch-clamp technique. This allowed measurement of the changes (inhibition) in VGKC currents caused by Aβ peptides. Similar inhibition studies on VGKC can be conducted using umami substance L-glutamate sodium (MSG) (FIG. 36A).
As shown in (FIG. 37), Aβ1-42 peptide, unlike Aβ25-35 targeting T1R3, interacts with T1R1 and inhibits VGSC currents (FIGS. 37D, E).

[13] = tested on: Cav1.2; experiment: Intracellular calcium measurement in HEK cells stably expressing Cav1.2 after KCl depolarisation; format: cell-based, human; conditions: 12.5 nM
Description: Specifically, experiments were conducted using a method to measure intracellular calcium concentration in HEK cells stably expressing Cav1.2. […] High concentrations of KCl depolarize the cell membrane potential by depolarizing the potassium equilibrium potential from the resting potential, activating voltage-gated calcium channels (VGCC, Cav1.2) that are activated by depolarization, and allowing extracellular calcium to flow into the cell through these calcium channels. (FIG. 47A) measures the activation process of intracellular calcium increase caused by the activation of these VGCCs.
The calcium response to high concentrations of potassium decays with a certain regularity, so the process was approximated using the Hyperbolic Decline formula
and the difference between the curve obtained (dashed line in FIG. 47A) and the experimental values was calculated to derive the enhancement of intracellular calcium by Aβ1-42 peptide.

## Aspartame
[1]; HEK Nav1.6, prepulse −80 mV, read-out: IC50 (VGSC inhibition)
  pIC50: 4.77
[2]
  Change in cell morphology: contracted cell morphology; also recorded: cell contraction
[3]
  Effects on VGSCs: Inhibition of VGSCs
  pIC50: > 4.30
[3]; 50 μM
  Inhibition of VGSC: > 90%. Inhibition is due to a parallel shift
[3]; listed as aspartame
  pIC50: 4.77 to 4.82 and > 4.77
[4]; prepulse −70 mV
  pIC50: 4.82
[4]; prepulse −100 mV
  pIC50: 4.30

## GSNKGAIIGLM [Aβ25-35]
[5]
  Change in intracellular calcium: an increase in intracellular calcium was observed
[6]
  Effect on VGSC in T1R3-silenced cells: is lost
[6]; 2 μM
  Change in VGSC: no change in VGSC was observed
[6]; listed as ab25-35
  Effect on VGSC in T1R3-silenced cells: T1R3 silencing nullifies ab25-35's
[3]
  Effects on VGSCs: Enhancement of VGSC
  Enhancement of VGSC current at high(er) concentration: VGSC current but not at higher
[3]; 12.5 nM, colchicine 2.25 μM
  Effect on VGSC current in the presence of colchicine: inhibits Aβ25-35-induced enhancement; also recorded: no further enhancement of VGSC current was observed
[3]; 125 nM to 2 μM
  Effect on VGSC current: Ab25-35 (125 nM to 2 μM) enhances
[3]; 12.6 μM LatA, Aβ25-35 printed 12.5 μM
  Effect on VGSC current in the presence of Latrunculin A: VGSC amplification; also recorded: doubled
[3]; listed as Ab25-35
  Enhancement of VGSC current at high(er) concentration: Ab25-35 is suppressed
[7]; MSG 5 mM
  Microtubule fibrous structure (GFP-Tubulin): disappearance of microtubule-like structures
[8]
  Effect on VGSC current: VGSC enhancement
[4]; 12.5 nM, perforated patch-clamp
  Cell membrane capacitance and VGSC current: increase in cell membrane capacitance and VGSC current
[4]; 120 nM, perforated patch-clamp
  Cell membrane capacitance and VGSC currents: increased
[4]; 240 nM, perforated patch-clamp
  Cell membrane capacitance and VGSC currents: decreased to control levels
[4]; 1 μM, control HEK Nav1.5 cells
  Effect on VGSC current: enhancing effect; also recorded: enhancement effect
[4]; control without anti-T1R3 antibody pre-treatment
  Increase in VGSC current amplitude: 10-20%
[4]; low concentration, perforated patch-clamp
  VGSC current density (pA/pF): current density of VGSC increased
[9]
  Effect on VGSC current: VGSC enhancement
[10]; 6.25 nM, NanoCharge method
  Frequency of spontaneous action potentials: an increase in spontaneous action potential frequency; also recorded: an increase in the frequency of spontaneous action potentials
[10]; current clamp, 6-12 pA stimulation
  Excitability / action potential threshold: increased the excitability of SH-SY5Y cells; also recorded: threshold for generating action potentials was lowered
[11]
  Effect on VGSC inward current: enhancement of transient downward VGSC current; also recorded: enhancement of VGSC inward current

## Aβ1-42: amyloid β peptide, Sequence No. 4
[5]
  Change in intracellular calcium: biphasic response; also recorded: transiently decreased, slowly recovered, and then began to increase
[6]
  Effect on VGSC in T1R3-silenced cells: is lost
[1]; HEK cells expressing Nav1.6 and Kv1.2
  Effect on Nav1.6 VGSC current: amplified; also recorded: enhancing effect
[12]
  Effect on voltage gated K+ channel (Kv1.2) current: reduced Kv1.2 potassium current; also recorded: concentration-dependently inhibits Kv1.2 potassium currents
[12]; listed as Aβ42 peptide
  Effect on voltage gated K+ channel (Kv1.2) current: Inhibition of Voltage gated
[3]
  Effect on VGSC inactivation: delays the inactivation
  Effects on VGSCs: Delay in VGSC inactivation
[7]
  Microfilament structure (GFP-Actin): condensed GFP-Actin structures
[8]
  Effect on VGSC current: enhancement of VGSC was observed
[4]; 12.5 nM and 25 nM
  Effect on VGSC current: concentration-dependent reductions in VGSC current
[4]; 12.5 nM, perforated patch-clamp with Gramicidin
  Effect on Nav1.5 VGSC current: enhanced; also recorded: enhancement effect
[4]; 74 nM
  Shift of I-V plot peak in the hyperpolarizing direction: 5-10 mV
[4]; 74 nM, whole-cell voltage clamp, listed as Aβ1-42 peptide
  Effect on VGSC current: decreasing trend; also recorded: suppressed sodium channel currents
[9]
  Effect on VGSC current: enhancement of VGSC was observed
[13]
  Intracellular calcium after KCl-induced Cav1.2 activation: further increase in intracellular calcium
[13]; n=3
  Enhancement of intracellular calcium relative to response to high concentrations of potassium: about 11%
